Series [1] has as its system HT29 cells. Put plainly: Antiproliferative assay in HT29 cells (MTS). The series is classed as cell-based, human. As to conditions: 24 hours, mean ± SD. How it is done:
In one embodiment, human Caco-2 and HT29 cell lines were obtained from Deutsche Sammlung von Mikroorganismen and Zellkulturen (DSMZ, Germany) and American Type Culture Collection (ATCC, USA), respectively. These cell lines were cultured in RPMI 1640 medium supplemented with 10% of heat-inactivated Fetal Bovine Serum (FBS). […] Cells were maintained at 37° C. with 5% CO2 in a humidified incubator and routinely grown as a monolayer in 75 cm^2 culture flasks. The cell culture medium and supplements were purchased from Invitrogen (Gibco, Invitrogen Corporation, UK). In one embodiment, the antiproliferative effect of […] and standard compounds was evaluated in HT29 cells. Briefly, cells were seeded at a density of 1×10^4 cells/well in 96-well culture plates. […] Cells incubated only with culture medium were considered as control. Cell proliferation was measured after 24 hours using MTS reagent, as mentioned above. Results were expressed in terms of percentage of living cells relative to the control. At least three independent experiments were performed in triplicate. In one embodiment, all data were expressed as mean±Standard Deviation (SD).

Series [2] can be described thus: Cytotoxicity assay in confluent, non-differentiated Caco-2 cells (MTS). The series is classed as cell-based, human. As to conditions: human, confluent, non-differentiated Caco-2 cells, isolated compounds, mean ± SD. How it is done: (§1) The cell culture medium and supplements were purchased from Invitrogen (Gibco, Invitrogen Corporation, UK).
(§2) Cells incubated only with culture medium were considered as control. […] At least three independent experiments were performed in triplicate.
(§3) A p-value<0.05 was considered statistically significant.

Series [3] relates to HT29 cells. Put plainly: Cell cycle assessment by flow cytometry (propidium iodide). The settings on record: 24 hours, non-cytotoxic concentrations (FIG. 5A). In general terms: In flow cytometry, cells or beads pass a laser one at a time.
Series [4] deals with HT29 cells. Put plainly: Apoptosis by caspase-3 activity (NucView488/MitoView633). The series is classed as cell-based, human. As to conditions: 2 mM, 24 hours (FIG. 5B). As to the method:
In one embodiment, apoptosis was evaluated by caspase-3 activity using NucView488™ and MitoView633™ Apoptosis Assay Kit (Biotium, USA) that allows staining of living cells by a far-red fluorescent dye MitoView633™ and the intracellular caspase-3/7 activity and cells nuclei morphological changes by bright green fluorescent dye NucView488™. […] Staining was performed with 200 μL/well of culture medium containing 1 μL of NucView488™ and 1 μL of MitoView633™ for 2 hours. Cells were observed under fluorescence microscope (Leica DM6000, Germany) and image analysis performed using ImageJ software.

The next series has as its system Caco-2 cells. Put plainly: Cytotoxicity assay in confluent, non-differentiated Caco-2 cells (MTS). Type of series: cell-based, human. The settings on record: isolated compounds, 24 hours, mean ± SD. As to the method: as §1, §2, §3

What is called EC50 is the concentration giving half of the maximal effect. A low value points to higher potency in that assay. Take `CCCCCCCCCC(=O)O` [CA, Capric acid]: the EC50 in the series on HT29 cells [1] (Homo sapiens, HT-29, isolated compounds) came to 341 ± 81 µM. Moreover, a half-maximal effect in series [2] (EC50 at 24 h) was put at 1330 ± 223 µM.

Consider S-Limonene, for which the “effect on cell cycle” value with HT29 cells [3] is given as “promoted cell cycle arrest in G1-phase”. For the same compound, in the series with HT29 cells [4], the “induction of apoptosis via caspase-3 activity” value was “capable of inducing apoptosis via caspase-3 activity”. The EC50 was found to be 661 ± 25 µM in the series with HT29 cells [1] (isolated compounds) and 2640 ± 108 µM with Caco-2 cells.

`CC(C)Cc1ccc(C(C)C(=O)O)cc1` (stereo not shown) [IBU, Ibuprofen]: the “effect on cell cycle” value in the series with HT29 cells [3] is recorded as “promoted cell cycle arrest in G1-phase”.
